# Tested on: HSV-1
# Experiment: HSV-1 IE gene expression in HeLa cells
# Format: cell-based
# Details: 50 µM, 5 h pretreatment, HSV-1 0.1 PFU/cell for 2 h
smiles,measurement,value
"C[C@H](NCc1ccc(OCc2cccc(F)c2)cc1)C(N)=O [Safinamide, safinamide]",inhibition of expression of viral IE (ICP27 and ICP4) genes,did not show substantial inhibition
